Patent US20060128653A1, “Pharmaceutical formulation of decitabine” (priority 2004, published 2006)
≈ marks a conversion by molar mass, not a printed value. Read-outs that look alike come from different tables or passages of the source.

Assays:
[1] = Solubility in 40% w/w cyclodextrin solutions versus potassium phosphate buffer; format: physicochemical; details: thermodynamic from solid, room temperature (20-25° C.)
Protocol: (§1) Aqueous solutions of cyclodextrin at pH 6.7-7.2 were prepared by dissolving 4 parts of cyclodextrins (hydroxypropyl α-cyclodextrin (HPACD), hydroxypropyl β-cyclodextrin (HPBCD), β-cyclodextrin (BCD), hydroxypropyl γ-cyclodextrin (HPGCD), or CAPTISOL) in 6 parts of potassium phosphate buffer (50 mM KH2PO4, pH 7.0), resulting solutions of 40% w/w cyclodextrins.
as §1, with “(HPBCD),” for “(HPBCD), β-cyclodextrin (BCD),”

[2] = Chemical stability of decitabine in cyclodextrin solutions (HPLC potency); format: physicochemical; details: 2-8° C. and 25° C., percentage of total peak areas at 220 nm, FIGS. 1 and 2
Protocol: The chemical stability of decitabine in the cyclodextrin solutions and in the phophate buffer as prepared above was determined. The initial decitabine concentration for all the solutions was 17-18 mg/mL at the beginning of the experiment at 2-8° C.; 9-10 mg/mL at the beginning of the experiment at 25° C. Decitabine potency was assayed by a HPLC method, and expressed as a percentage of total peak areas at 220 nm.

[3] = UV spectroscopy of decitabine-HPBCD complex formation; format: physicochemical; details: absorbance at 262 nm, room temperature, 1:1 stoichiometry assumed, least-squares fit
[4] = cited from earlier work
[5] = 40% w/w Captisol aqueous solution, aqueous with cosolvent or surfactant or cyclodextrin, 40% Captisol (w/w, pH 6.7)
[6] = 40% w/w HPACD aqueous solution, aqueous with cosolvent or surfactant or cyclodextrin, 40% HPACD (w/w, pH 7.0)
[7] = 40% w/w HPBCD aqueous solution, aqueous with cosolvent or surfactant or cyclodextrin, 40% HPBCD (w/w, pH 7.2)
[8] = potassium phosphate buffer, aqueous buffer, KPi (50 mM KH2PO4, pH 7.0)

solubility [1, 5] [mg/mL]	solubility [1, 6] [mg/mL]	solubility [1, 7] [mg/mL]	solubility ([1]; 40% w/w HPGCD aqueous solution, aqueous with cosolvent or surfactant or cyclodextrin, 40% HPGCD (w/w, pH 7.0)) [mg/mL]	solubility [1, 8] [mg/mL]	Stability of decitabine in aqueous solution with cyclodextrins as excipients [2]	Complex formation constant Kf for decitabine-HPBCD complex [3] [M⁻¹]	SMILES	Steady-state plasma concentration (estimated) ([4]; 6-hour infusion of 100 mg/m^2) [µg/mL]	Range of plasma concentrations ([4]; 600-mg/m^2 infusion) [µg/mL]	Terminal half-life ([4]; humans, measured by bioassay) [min]	Half-life after discontinuing the infusion ([4]; humans) [min]	Total urinary excretion, % of the administered dose ([4]; humans)	Volume of distribution ([4]; humans)	Steady-state plasma concentration (estimated) ([4]; infusion rate of 1 mg/kg/h) [µg/mL]	Plasma concentration ([4]; infusion times of 40-60 hours, infusion rate 1 mg/kg/h) [ng/mL]	Penetration into the cerebrospinal fluid, % of the plasma concentration ([4]; man, end of a 36-hour intravenous infusion)	Plasma concentration ([4]; patients, 100 mg/m^2 as a 3-hour infusion)
26 (≈ 106 mM)	20 (≈ 81.9 mM)	26 (≈ 106 mM)	22 (≈ 90.1 mM)	19 (≈ 77.8 mM)	–	–	Nc1ncn([C@@H]2O[C@H](CO)[C@@H](O)[C@H]2O)c(=O)n1 [5-azacytidine]	–	–	–	–	–	–	–	–	–	–
42 (≈ 184 mM)	18 (≈ 78.9 mM)	44 (≈ 193 mM)	–	18 (≈ 78.9 mM)	dramatically improve the stability	23	Nc1ncn([C@H]2C[C@H](O)[C@@H](CO)O2)c(=O)n1 [decitabine, 5-aza-2′-deoxycytidine]	0.31 to 0.39	0.41 to 16	10 to 35	12 to 20	less than 1%	about 4.6 L/kg	0.2 to 0.5	430 to 760	14-21%	about 0.4 μg/ml
